Where two headings read alike, the source gives them in different places.
Columns and labels:
S. aureus ATCC 6538 = assay: Monospecies bacterial biofilm inhibition, static peg assay (Calgary device, crystal violet; planktonic OD600); format: cell-based, Staphylococcus aureus
Method: (§1) A static peg assay, described previously ([27], [74]), was used for bacterial biofilm formation. The Calgary biofilm device consists of a platform carrying 96 polystyrene pegs (Nunc no. 445497) that fits as a microtiter plate lid, with 1 peg hanging into each microtiter plate well (Nunc no. 269789). Twofold serial dilutions of the compounds (dissolved in 100% dimethyl sulfoxide [DMSO] or ethanol) in 100 μl liquid broth (TSB diluted 1/20) per well were prepared in the microtiter plate in duplicate or triplicate with a maximum concentration of 1,600 μM and a minimum concentration of 0.8 μM. Subsequently, an overnight culture of S. Typhimurium ATCC 14028, P. aeruginosa PA14, E. coli TG1, S. epidermidis, S. aureus SH1000, or S. aureus ATCC 6538 (all grown in LB) was diluted 1:100 into TSB diluted 1/20 (or TSB for S. epidermidis, S. aureus SH1000, and S. aureus ATCC 6538), whereas overnight cultures of S. liquefaciens MG44 and B. cepacia LMG1222T were diluted 1:50 into TSB diluted 1/20. P. gingivalis ATCC 33277 cultures were diluted in TSB diluted 1/20 to have a final concentration of 1 × 10^8 cells/ml. Next, 100 μl was added to each well of the microtiter plate, resulting in a total volume of 200 μl medium per well (final concentration range of compounds, 800 μM [2% DMSO or ethanol] to 0.4 μM [0.001% DMSO or ethanol]). In the next step, the pegged lid was placed on the microtiter plate and the plate was incubated for 24 h or 48 h at 25°C or 37°C without shaking. At 37°C, the plates were placed in a sealed container with wet towels on the bottom to prevent evaporation of the growth medium. Biofilms of P. gingivalis ATCC 33277 were grown anaerobically at 37°C for 72 h. During this incubation period, biofilms were formed on the surface of the pegs. After incubation, the optical density at 600 nm (OD600) for the planktonic cells in the microtiter plate was measured using a Synergy MX multimode reader (BioTek, Winooski, VT). This gives a first indication of the effect of the compounds on planktonic growth. For quantification of biofilm formation, the pegs were washed once in 200 μl PBS. The remaining attached bacteria were stained for 30 min with 200 μl 0.1% (wt/vol) crystal violet in an isopropanol-methanol-PBS solution (1:1:18, vol/vol). Excess stain was rinsed off by placing the pegs in a 96-well plate filled with 200 μl distilled water per well. After air drying of the pegs (30 min), the dye bound to the adherent biofilm was extracted with 30% glacial acetic acid (200 μl per well of a 96-well plate). The optical density at 570 nm (OD570) of each well was measured using a Synergy MX multimode reader (BioTek, Winooski, VT). The concentration of each compound needed to inhibit biofilm formation by 50% (BIC50) and the concentration of each compound needed to inhibit planktonic growth by 50% (IC50) were determined from the concentration gradient by using nonlinear curve fitting (GraphPad Prism software, version 5; GraphPad Software, Inc., La Jolla, CA). In the same assay, the effect on planktonic growth was evaluated. The activity was considered biofilm specific if the BIC50 was at least two times lower than the IC50. Data represent the means from at least 3 technical repeats with the corresponding 95% confidence intervals (provided in the supplemental material).

S. aureus SH1000 [1] = assay: Monospecies bacterial biofilm inhibition, static peg assay; format: cell-based, Staphylococcus aureus
Method: as §1

S. epidermidis = assay: as above; format: cell-based, Staphylococcus epidermidis; settings: 37°C
Method: as §1

E. coli TG1 = assay: as above; format: cell-based, Escherichia coli
Method: as §1

P. aeruginosa PA14 = assay: as above; format: cell-based, Pseudomonas aeruginosa
Method: as §1

[2] = tested on: S. Typhimurium ATCC 14028; assay: as above; format: cell-based, Salmonella enterica serovar Typhimurium; settings: S. Typhimurium ATCC 14028, 25°C
Method: as §1

S. liquefaciens MG44 = assay: as above; format: cell-based, Serratia liquefaciens; settings: S. liquefaciens MG44, 25°C
Method: as §1

B. cepacia LMG1222T = assay: as above; format: cell-based, Burkholderia cepacia; settings: 25°C
Method: as §1

C. albicans SC5314 = assay: Inhibition of C. albicans biofilms, CellTiter-Blue quantification; format: cell-based, Candida albicans; settings: C. albicans SC5314, 37°C, CTB method, read-out: BIC50 (μM) for C. albicans SC5314 (37°C)
Method: The potential of the compounds to prevent C. albicans SC5314 biofilm formation was assessed using the CellTiter-Blue (CTB) quantification method ([75]). […]. Twofold serial dilutions of the compounds (dissolved in 100% DMSO or ethanol) in 100 μl RPMI 1640 medium per well were prepared in a round-bottom polystyrene 96-well microtiter plate (TPP; Trasadingen, Switzerland) in duplicate or triplicate with a maximum concentration of 1,600 μM and a minimum concentration of 0.8 μM. One hundred microliters of the cell suspension was added to each well of the microtiter plate, resulting in a total volume of 200 μl medium per well (final concentration range of compounds, 800 μM [2% DMSO or ethanol] to 0.4 μM [0.001% DMSO or ethanol]). After 16 h of static incubation at 37°C, the biofilms were washed and quantified by the CTB method as described previously ([73]).

P. aeruginosa PAO1 = settings: cited from earlier work
CsgD = settings: S. Typhimurium, first 24 h of biofilm formation; cited from earlier work
S. aureus SH1000 [3] = tested on: S. aureus SH1000; set-up: method as in PMID 23208606, PMID 19959627; settings: cited from earlier work
E. coli VR50 = tested on: E. coli VR50; set-up: method as in PMID 23208606, PMID 19959627; settings: cited from earlier work
E. coli F18 = tested on: E. coli F18; set-up: method as in PMID 23208606, PMID 19959627; settings: cited from earlier work
[4] = Staphylococcus aureus, ATCC6538, read-out: BIC50 (concentration needed to inhibit biofilm formation by 50%), S. aureus ATCC 6538, 37°C
[5] = Staphylococcus aureus, ATCC6538, read-out: IC50 (concentration needed to inhibit planktonic growth by 50%), S. aureus ATCC 6538, 37°C, planktonic OD600
[6] = Staphylococcus aureus, SH1000, S. aureus SH1000, 37°C, read-out: BIC50
[7] = Staphylococcus aureus, SH1000, S. aureus SH1000, 37°C, read-out: IC50 (planktonic growth)
[8] = Staphylococcus epidermidis, read-out: BIC50
[9] = Staphylococcus epidermidis, read-out: IC50 (planktonic growth)
[10] = Escherichia coli, TG1, E. coli TG1, 25°C, read-out: BIC50
[11] = Escherichia coli, TG1, E. coli TG1, 25°C, read-out: IC50 (planktonic growth)
[12] = Pseudomonas aeruginosa, PA14, P. aeruginosa PA14, 25°C, read-out: BIC50
[13] = Pseudomonas aeruginosa, PA14, P. aeruginosa PA14, 25°C, read-out: IC50 (planktonic growth)
[14] = Salmonella enterica, read-out: BIC50
[15] = Salmonella enterica, read-out: IC50 (planktonic growth)
[16] = Serratia liquefaciens, read-out: BIC50
[17] = Serratia liquefaciens, read-out: IC50 (planktonic growth)
[18] = Burkholderia cepacia, read-out: BIC50
[19] = Burkholderia cepacia, read-out: IC50 (planktonic growth)
[20] = read-out: IC50 (planktonic growth)

Compound | IC50 (S. aureus ATCC 6538; [4]) [µM] | IC50 (S. aureus ATCC 6538; [5]) [µM] | IC50 (S. aureus SH1000 [1]; [6]) [µM] | IC50 (S. aureus SH1000 [1]; [7]) [µM] | IC50 (S. epidermidis; [8]) [µM] | IC50 (S. epidermidis; [9]) [µM] | IC50 (E. coli TG1; [10]) [µM] | IC50 (E. coli TG1; [11]) [µM] | IC50 (P. aeruginosa PA14; [12]) [µM] | IC50 (P. aeruginosa PA14; [13]) [µM] | IC50 [2, 14] [µM] | IC50 [2, 15] [µM] | IC50 (S. liquefaciens MG44; [16]) [µM] | IC50 (S. liquefaciens MG44; [17]) [µM] | IC50 (B. cepacia LMG1222T; [18]) [µM] | IC50 (B. cepacia LMG1222T; [19]) [µM] | IC50 (C. albicans SC5314; Candida albicans) [µM] | concentration at which biofilm formation is inhibited (P. aeruginosa PAO1) [µM] | other results
O=C(N/N=C/c1ccc([N+](=O)[O-])o1)c1ccc(O)cc1 [Nifuroxazide, reference compound] | 65.5 | 125 | > 400 | > 400 | 46.9 | ~43.4 | 12.2 | > 400 | > 400 | > 400 | > 400 | > 400 | > 400 | > 400 | > 400 | > 400 | > 400 | 70 | –
O=c1cc(-c2ccccc2)oc2cc(O)c(O)c(O)c12 [Baicalein, reference compound] | > 400 | > 400 | 77.5 | > 400 | > 400 | > 400 | 1.2 | ~23.5 | > 400 | > 400 | > 400 | > 400 | > 400 | > 400 | 48.9 | > 400 | 273 | 20 | –
Nc1ncc(-c2ccccc2)[nH]1 [5-phenyl-2-aminoimidazole] | – | – | – | – | – | – | – | – | – | – | – | – | – | – | – | – | – | – | effect on transcription of CsgD and regulon genes csgB and adrA (CsgD): reduces the transcription of CsgD
Tannic acid [reference compound] | – | – | – | – | – | – | – | – | – | – | – | – | – | – | – | – | – | – | IC50 (S. aureus ATCC 6538; S. aureus ATCC 6538, 37°C, planktonic OD600, read-out: IC50 (concentration needed to inhibit planktonic growth by 50%)): > 400 µM; IC50 (S. aureus ATCC 6538; S. aureus ATCC 6538, 37°C, read-out: BIC50 (concentration needed to inhibit biofilm formation by 50%)): ~300 µM; IC50 (S. aureus SH1000 [1]; S. aureus SH1000, 37°C, read-out: BIC50): 115 µM; IC50 (S. aureus SH1000 [1]; S. aureus SH1000, 37°C, read-out: IC50 (planktonic growth)): > 400 µM; IC50 (S. epidermidis; read-out: BIC50): > 400 µM; IC50 (S. epidermidis; [20]): > 400 µM; IC50 (E. coli TG1; E. coli TG1, 25°C, read-out: BIC50): ~195 µM; IC50 (E. coli TG1; E. coli TG1, 25°C, read-out: IC50 (planktonic growth)): > 400 µM; IC50 (P. aeruginosa PA14; P. aeruginosa PA14, 25°C, read-out: BIC50): 27.7 µM; IC50 (P. aeruginosa PA14; P. aeruginosa PA14, 25°C, read-out: IC50 (planktonic growth)): > 400 µM; IC50 ([2]; read-out: BIC50): 18.8 µM; IC50 [2, 20]: > 400 µM; IC50 (S. liquefaciens MG44; read-out: BIC50): > 400 µM; IC50 (S. liquefaciens MG44; [20]): > 400 µM; IC50 (B. cepacia LMG1222T; read-out: BIC50): 1.9 µM; IC50 (B. cepacia LMG1222T; [20]): > 400 µM; IC50 (C. albicans SC5314): > 400 µM; concentration at which biofilm formation is inhibited (S. aureus SH1000 [3]): 20 µM; concentration at which biofilm formation is inhibited (E. coli VR50): 20 µM; concentration at which biofilm formation is inhibited (E. coli F18): 20 µM

— PMC5075052, “Modulation of the Substitution Pattern of 5-Aryl-2-Aminoimidazoles Allows Fine-Tuning of Their Antibiofilm Activity Spectrum and Toxicity” (Antimicrobial Agents and Chemotherapy, 2016)
